Assay results taken from US20210130308A1, “MODULATORS OF EUKARYOTIC INITIATION FACTOR 2” (Denali Therapeutics Inc., priority 2018, published 2021).

What follows are molecules tested on ATF4 translation (ISR pathway activation) (assay: ATF4 Nano Luciferase reporter integrated stress response (ISR) assay in H4 ATF4-NLuc (clone 17) cells). Conditions: H4 ATF4-NLuc (clone 17) cells; compounds 30 minutes at 37 degree Celsius, then 50 um sodium arsenite for 6 additional hours; luminescence readout; read-out: IC50.
Assay type: cell-based, human
Text: Cellular stress leads to activation of the integrated stress response pathway through one of four eukaryotic initiation factor 2α kinases and halts global translation, while allowing for the translation of select transcripts like ATF4 (activating transcription factor 4) that are important for the response to cellular stress. During normal conditions, small open reading frames (ORFs) in the 5′ UTR of ATF4 occupy the ribosome and prevent translation of the coding sequence of ATF4. During stress conditions however, the ribosome scans past these upstream ORFs and preferentially begins translation at the coding sequence of ATF4. In this way, the translation, and thus protein level of ATF4 is a readout of ISR pathway activation. Thus, a fusion of the uORFs and the beginning of the coding sequence of ATF to a common cellular reporter like nano-luciferase allows for a sensitive and high-throughput readout of ISR pathway activity.
Compounds as provided herein were tested in the following assay. The ATF4 Nano Luciferase reporter was constructed by fusing the human full length 5′ untranslated region (5′-UTR) and a small portion of the coding sequence of the ATF4 gene upstream of the Nano Luciferase (NLuc) coding sequence lacking it's start codon. Specifically, nucleotides +1 through +364 (relative to the transcriptional start site) of ATF4 transcript variant 2 (NCBI NM_182810.2) flanked 5′ by EcoRI and 3′ by BamHI restriction enzyme sites were synthesized and cloned into the EcoRI/BamHI cloning sites of pLVX-EF1a-IRES-Puro lentivirus vector (Clontech). […]. H4 cells were selected with […] Puromycin, and clonal cell lines generated by limiting dilution. We utilized this cell line to generate an integrated stress response (ISR) assay to evaluate the activity of ISR pathway inhibitors via luminescence readout. The H4 ATF4-NLuc (clone 17) cell line is plated at a density of […] in 96-well or 384-well respectively in DMEM+10% fetal bovine serum. 24-hours later test compounds diluted in dimethyl sulfoxide (DMSO) are added for 30 minutes at 37 degree Celsius, followed by ISR pathway activation with 50 um sodium arsenite aqueous solution for 6 additional hours. Nano Glo luciferase reagent (N1150, Promega) is added according to manufacturer instructions and the luminescence signal (corresponding to the level of ATF4 translation and thus ISR pathway activation) is read with a standard plate reader with luminescence detection capabilities.
In the table below, activity of the tested compounds is provided in Table 3 as follows: +++=IC50<1 μM; ++=IC50 1-10 μM; +=IC50>10 μM.

`N#CC1CC(OCC(=O)NC23CC(NC(=O)COc4ccc(Cl)cc4)(C2)C3)C1` (stereo not drawn) [Example 31, 2-(4-chlorophenoxy)-N-[3-[[2-(3-cis-cyanocyclobutoxy)acetyl]amino]-1-bicyclo[1.1.1]pentanyl]acetamide] was tested, and the IC50 was under 1000 nM.

Same assay, conditions: Homo sapiens, 0.5 h

First: O=C(COc1cccc(Cl)c1F)NC12CC(NC(=O)COC3CCC3)(C1)C2 [Example 13, 2-(3-chloro-2-fluoro-phenoxy)-N-[3-[[2-(cyclobutoxy)acetyl]amino]-1-bicyclo[1.1.1]pentanyl]acetamide]
Second: O=C(COc1ccc(Cl)cc1)N[C@H]1CC[C@H](c2nnc(C3CC(OC(F)(F)F)C3)o2)CC1 (stereo partly drawn) [Example 29, 2-(4-chlorophenoxy)-N-[4-[5-[3-cis-(trifluoromethoxy)cyclobutyl]-1,3,4-oxadiazol-2-yl]cyclohexyl]acetamide]
The IC50 of the first is higher: 1000 to 10000 nM for the first, under 1000 nM for the second. The second is the more potent here.

Same assay, conditions: Homo sapiens, 0.5 h; H4 ATF4-NLuc (clone 17) cells; compounds 30 minutes at 37 degree Celsius, then 50 um sodium arsenite for 6 additional hours; luminescence readout; read-out: IC50

Compared with `CC1(C)CC(OCC(=O)NC23CC(NC(=O)COc4ccc(Cl)cc4)(C2)C3)C1` [Example 5, 2-(4-chlorophenoxy)-N-(3-(2-(3,3-dimethylcyclobutoxy)acetamido)bicyclo[1.1.1]pentan-1-yl)acetamide], `CC1(OCC(=O)NC23CC(NC(=O)COc4ccc(Cl)cc4)(C2)C3)CC(C#N)C1` (stereo not shown) [Example 8, 2-(4-chlorophenoxy)-N-(3-(2-(3-cyano-1-methylcyclobutoxy)acetamido)bicyclo[1.1.1]pentan-1-yl)acetamide] is higher in IC50: under 1000 nM for the first, 1000 to 10000 nM for the second. The first is the more potent here.

`N#CC1CC(OCC(=O)NC23CC(NC(=O)COc4ccc(Cl)cc4)(C2)C3)C1` (stereo not shown) [Example 6, 2-(4-chlorophenoxy)-N-(3-(2-(3-cyanocyclobutoxy)acetamido)bicyclo[1.1.1]pentan-1-yl)acetamide] and `N#CC1CC(OCC(=O)NC23CC(NC(=O)COc4ccc(Cl)c(F)c4)(C2)C3)C1` (stereo not shown) [Example 7, 2-(4-chloro-3-fluorophenoxy)-N-(3-(2-(3-cyanocyclobutoxy)acetamido)bicyclo[1.1.1]pentan-1-yl)acetamide] cannot be ordered by IC50: under 1000 nM for the first, under 1000 nM for the second.

`O=C(COc1ccc(Cl)c(F)c1)NC12CC(NC(=O)COC3CC(F)C3)(C1)C2` (stereo not shown) [Example 9] and `O=C(COc1ccc(Cl)c(F)c1)NC12CC(NC(=O)COC3CCC3)(C1)C2` [Example 10, 2-(4-chloro-3-fluorophenoxy)-N-(3-(2-cyclobutoxyacetamido)bicyclo[1.1.1]pentan-1-yl)acetamide] cannot be ordered by IC50: under 1000 nM for the first, under 1000 nM for the second.

`CC1(C#N)CC(OCC(=O)NC23CC(NC(=O)COc4ccc(Cl)c(F)c4)(C2)C3)C1` (stereo not shown) [Example 11, 2-(4-chloro-3-fluorophenoxy)-N-(3-(2-(3-cyano-3-methylcyclobutoxy)acetamido)bicyclo[1.1.1]pentan-1-yl)acetamide] and `N#CC1CC(OCC(=O)N2CC3(CC(NC(=O)COc4ccc(Cl)c(F)c4)C3)C2)C1` (stereo not shown) [Example 20, 2-(4-chloro-3-fluoro-phenoxy)-N-[2-[2-(3-cyanocyclobutoxy)acetyl]-2-azaspiro[3.3]heptan-6-yl]acetamide] cannot be ordered by IC50: under 1000 nM for the first, under 1000 nM for the second.

`N#CC1CC(OCC(=O)N2CCC3(CC2)CC(NC(=O)COc2ccc(Cl)c(F)c2)C3)C1` (stereo not shown) [Example 14, 2-(4-chloro-3-fluoro-phenoxy)-N-[7-[2-(3-cyanocyclobutoxy)acetyl]-7-azaspiro[3.5]nonan-2-yl]acetamide] and `O=C(COc1ccc(Cl)c(F)c1)NC1CC2(CCN(C(=O)COC3CCC3)CC2)C1` [Example 15, 2-(4-chloro-3-fluoro-phenoxy)-N-[7-[2-(cyclobutoxy)acetyl]-7-azaspiro[3.5]nonan-2-yl]acetamide] cannot be ordered by IC50: under 1000 nM for the first, under 1000 nM for the second.

`O=C(COc1ccc(Cl)c(F)c1)NC1CC2(CCN(C(=O)COC3CC(C(F)(F)F)C3)CC2)C1` (stereo not shown) [Example 16, 2-(4-chloro-3-fluoro-phenoxy)-N-[7-[2-[3-(trifluoromethyl)cyclobutoxy]acetyl]-7-azaspiro[3.5]nonan-2-yl]acetamide] and `O=C(COc1ccc(Cl)c(F)c1)NC1CC2(C1)CN(C(=O)COC1CC(C(F)(F)F)C1)C2` (stereo not shown) [Example 17, 2-(4-chloro-3-fluoro-phenoxy)-N-[2-[2-[3-(trifluoromethyl)cyclobutoxy]acetyl]-2-azaspiro[3.3]heptan-6-yl]acetamide] cannot be ordered by IC50: under 1000 nM for the first, under 1000 nM for the second.

`O=C(COc1ccc(Cl)c(F)c1)NC1CC2(C1)CN(C(=O)COC1CC(n3nccn3)C1)C2` (stereo not shown) [Example 18, 2-(4-chloro-3-fluoro-phenoxy)-N-[2-[2-[3-(triazol-2-yl)cyclobutoxy]acetyl]-2-azaspiro[3.3]heptan-6-yl]acetamide] and `O=C(COc1ccc(Cl)c(F)c1)NC1CC2(C1)CN(C(=O)COC1CCC1)C2` [Example 19, 2-(4-chloro-3-fluoro-phenoxy)-N-[2-[2-(cyclobutoxy)acetyl]-2-azaspiro[3.3]heptan-6-yl]acetamide] cannot be ordered by IC50: under 1000 nM for the first, under 1000 nM for the second.

Compared with `O=C(COc1ccc(Cl)c(F)c1)NC1CC2(C1)CN(C(=O)COC1CC(OC(F)(F)F)C1)C2` (stereo not drawn) [Example 21, 2-(4-chloro-3-fluoro-phenoxy)-N-[2-[2-[3-cis-(trifluoromethoxy)cyclobutoxy]acetyl]-2-azaspiro[3.3]heptan-6-yl]acetamide], `O=C(COc1ccc(Cl)c(F)c1)NC1CN(C(=O)COC2CC(OC(F)(F)F)C2)C1` (stereo not drawn) [Example 24, 2-(4-chloro-3-fluoro-phenoxy)-N-[1-[2-[3-cis-(trifluoromethoxy)cyclobutoxy]acetyl]azetidin-3-yl]acetamide] is higher in IC50: under 1000 nM for the first, 1000 to 10000 nM for the second. The first is the more potent here.

`O=C(COC1CC(OC(F)(F)F)C1)NC1CN(c2nnc(COc3ccc(Cl)c(F)c3)o2)C1` (stereo not drawn) [Example 22, N-[1-[5-[(4-chloro-3-fluoro-phenoxy)methyl]-1,3,4-oxadiazol-2-yl]azetidin-3-yl]-2-[3-cis-(trifluoromethoxy)cyclobutoxy]acetamide] and `O=C(COc1ccc(Cl)c(F)c1)NC1CN(c2nnc(COC3CC(OC(F)(F)F)C3)o2)C1` (stereo not drawn) [Example 23, 2-(4-chloro-3-fluoro-phenoxy)-N-[1-[5-[[3-cis-(trifluoromethoxy)cyclobutoxy]methyl]-1,3,4-oxadiazol-2-yl]azetidin-3-yl]acetamide] cannot be ordered by IC50: under 1000 nM for the first, under 1000 nM for the second.

First: O=C(CO[C@H]1C[C@@H](OC(F)(F)F)C1)NC1CN(C(=O)COC2CC(OC(F)(F)F)C2)C1 (stereo partly drawn) [Example 25, 2-[3-cis (trifluoromethoxy)cyclobutoxy]-N-[1-[2-[3-cis-(trifluoromethoxy)cyclobutoxy]acetyl]azetidin-3-yl]acetamide]
Second: O=C(COC1CC(OC(F)(F)F)C1)N[C@H]1CC[C@H](c2nnc(C3CC(OC(F)(F)F)C3)o2)CC1 (stereo partly drawn) [Example 30, 2-[3-cis-(trifluoromethoxy)cyclobutoxy]-N-[4-[5-[3-cis-(trifluoromethoxy)cyclobutyl]-1,3,4-oxadiazol-2-yl]cyclohexyl]acetamide]
The IC50 of the first is higher: 1000 to 10000 nM for the first, under 1000 nM for the second. The second is the more potent here.

`O=C(COc1ccc(Cl)c(F)c1)NC1CCN(c2nnc(C3CC(OC(F)(F)F)C3)o2)CC1` (stereo not drawn) [Example 26, 2-(4-chloro-3-fluoro-phenoxy)-N-[1-[5-[3-cis-(trifluoromethoxy)cyclobutyl]-1,3,4-oxadiazol-2-yl]-4-piperidyl]acetamide] and `O=C(COc1ccc(Cl)c(F)c1)N[C@H]1CC[C@H](c2nnc(C3CC(OC(F)(F)F)C3)o2)CC1` (stereo partly drawn) [Example 28, 2-(4-chloro-3-fluoro-phenoxy)-N-[4-[5-[3-cis-(trifluoromethoxy)cyclobutyl]-1,3,4-oxadiazol-2-yl]cyclohexyl]acetamide] cannot be ordered by IC50: under 1000 nM for the first, under 1000 nM for the second.

`O=C(COc1ccc(Cl)c(F)c1)NC1CCN(CCO[C@H]2C[C@@H](OC(F)(F)F)C2)CC1` [Example 27, 2-(4-chloro-3-fluoro-phenoxy)-N-[1-[2-[3-cis-(trifluoromethoxy)cyclobutoxy]ethyl]-4-piperidyl]acetamide] and `O=C(COc1ccc(Cl)c(F)c1)NC1CC2(C1)CC(c1nnc(C3CC(OC(F)(F)F)C3)o1)C2` (stereo not drawn) [Example 33, 2-(4-chloro-3-fluoro-phenoxy)-N46-[5-[3-cis-(trifluoromethoxy)cyclobutyl]-1,3,4-oxadiazol-2-yl]spiro[3.3]heptan-2-yl)acetamide] cannot be ordered by IC50: under 1000 nM for the first, under 1000 nM for the second.

Work on `O=C(COC1CC(OC(F)(F)F)C1)NC1CC2(C1)CC(c1nnc(C3CC(OC(F)(F)F)C3)o1)C2` (stereo not drawn) [Example 32, 2-[3-cis-(trifluoromethoxy)cyclobutoxy]-N-[6-[5-[3-cis-(trifluoromethoxy)cyclobutyl]-1,3,4-oxadiazol-2-yl]spiro[3.3]heptan-2-yl]acetamide] yielded an IC50 of under 1000 nM.
